In US12357668B2, “Anticancer activity of Buddleja saligna compositions” (University of Pretoria, priority 2019, dated 2025):
In brackets after ≈: the same amount, converted by molar mass. Each block holds one compound with its values, some of them ahead of it. Numbered stars: 1 amine (or outer) side, 2 acyl side, 3 side chain; on linkers, the order of the positions; unused ones are H or OH. Bridge positions count the residues as written; N and C are the ends. Square brackets hold non-standard residues; d marks the D form. Peptide text beside a SMILES is read from it. I, II: the chains in the order shown. Actinocin(9to1) = Cc1c2oc3c(C)ccc(C(=O)[*:1])c3nc-2c(C(=O)[*:2])c(N)c1=O; NMeV = CN[C@H](C(=O)O)C(C)C; Sar = CNCC(=O)O

Legend:
[1] = Nitric oxide scavenging activity (Griess reaction)
Method: Briefly, 90 μl of distilled water was added to the top row of a 96-well microtitre plate and 50 μl to the rest of the wells in the plate. […] Ethanol was used as the negative control. To each well 50 μl sodium nitroprusside (10 mM) was added and the plates were incubated at room temperature for 90 min. Thereafter, 100 μl Griess reagent was added to all the wells, except for the blank plates where distilled water was added. […] All samples were tested in triplicate. The percentage inhibition of the samples was calculated using the below equation.
Where Abscontrol is the absorbance of NO radical+ethanol control; Absample is the absorbance of (NO radical+sample OR positive control)−(blank values of corresponding sample). The IC50 values for each sample were calculated using GraphPad Prism 4 software.

[2] = test system: UCT-MEL-1 (human pigmented melanoma) cells; test: XTT antiproliferative assay, human melanoma cells; format: cell-based; details: HaCat versus UCT-MEL-1 IC50
Method: To investigate the antiproliferative potential of B. saligna and DT-BS-01, the XTT assay was performed. Antiproliferative activity was measured using the method as described by Berrington and Lall (2012) using the XTT Cell Proliferation Kit II. Cells were seeded at a concentration of 1.0×10^6 cells/ml in 96-well plates (100 μl) and allowed to adhere for 24 h. The B. saligna extract and DT-BS-01 were prepared at stock concentrations of 20 mg/ml, serially diluted and added to the 96-well plates at final concentrations ranging from 1.56-200 μg/ml. […] Cells were incubated for a further 72 h with the respective samples and controls. […] Blank plates were included which were prepared in the same manner as mentioned above, without the additional of cell, to allow for colour compensation of the samples. The samples were tested in triplicate and the percentage cell viability was calculated using the following equation. […] Where Abscontrol is the absorbance of XTT+vehicle control and Absample is the absorbance of (XTT+sample OR positive control)-(blank values of corresponding sample). […] The XTT colorimetric assay is based on the ability of viable metabolically active cells to convert a yellow tetrazolium salt to an orange formazan dye. […]

[3] = test system: HaCat (human keratinocytes) cells; test: XTT antiproliferative assay, human keratinocytes; format: cell-based; details: 72 h exposure
Method: The cell lines were maintained in culture flasks containing Dulbecco's modified Eagle's medium (DMEM) supplemented with 10%, heat-inactivated fetal bovine serum (FBS) and 100 U/ml penicillin, 100 μg/ml streptomycin and 250 μg/ml fungizone at 37° C. and 5%, CO2. Cells were sub-cultured once an 80%, confluent monolayer had formed using trypsin-EDTA (0.25%, trypsin containing 0.01%, EDTA).
To investigate the antiproliferative potential of B. saligna and DT-BS-01, the XTT assay was performed. Antiproliferative activity was measured using the method as described by Berrington and Lall (2012) using the XTT Cell Proliferation Kit II. […] Thereafter, 50 μl XTT (0.3 mg/ml) was added to the cells and incubated for 2 h where after the absorbance was measured at 490 nm (reference wavelength of 690 nm) using a BIO-TEK power-wave XS plate reader (A.D.P, Weltevreden Park, South Africa). […] The samples were tested in triplicate and the percentage cell viability was calculated using the following equation.
Where Abscontrol is the absorbance of XTT+vehicle control and Absample is the absorbance of (XTT+sample OR positive control)−(blank values of corresponding sample). The fifty percent inhibitory concentrations (IC50) were calculated from the % cell viability using the GraphPad Prism 4 software. […]

HaCat cells [4] = test: Light microscopy (haematoxylin and eosin staining), cell morphology; format: cell-based, human; details: 0.025 μg/ml, 48 h
Method: (§1) One of the hallmarks of cancer cells is their ability to evade apoptosis, therefore providing a suitable target for the destruction of cancer cells. The effect of B. saligna and DT-BS-01 on the morphology of UCT-MEL-1 and HaCat cells was determined using light microscopy. Light microscopy (haematoxylin and eosin staining) was used to determine the qualitative effect B. saligna (30 and 60 μg/ml) and DT-BS-01 (5 and 20 μg/ml) on the morphology of UCT-MEL-1 and HaCat cells. […] Exponentially growing UCT-MEL-1 and HaCat cells were seeded at 1.0×10^5 cells per well in a 6-well plate and incubated for 24 h at 37° C. at 5% CO2 to allow for cell adherence. […] Cells were stained (in the 6-well plate) as described by Berrington & Lall (2012). After staining, sterile PBS was added to all the wells and immediately analysed for morphological changes using a light microscope (Zeiss Primovert).
(§2) Light microscopy was performed in order to determine whether cell death, induced by B. saligna and the DT-BS-01 was mediated through apoptosis (FIG. 2 and FIG. 3). Apoptosis is described as a programmed cell death in which biochemical and morphological changes occur within the cells. […]

UCT-MEL-1 cells [5] = test: as above; format: cell-based, human; details: 0.025 μg/ml, 48 h
Method: as §1, §2

HaCat cells [6] = test: Flow cytometry apoptosis detection (Annexin V / 7-AAD); format: cell-based, human; details: 0.025 μg/ml, 48 h
Text: (§3) Phosphatidylserine (PS) is a lipid, which is present in the inner leaflet of the plasma membrane. The early stages of apoptosis are characterized by an asymmetric membrane due to the translocation of the PS lipid from the inner membrane leaflet to the outer leaflet. Once exposed to the outer cellular environment, Annexin V, which has a high affinity for PS, is able to bind to it. After the early stages of apoptosis have taken place, the plasma membrane integrity starts to disintegrate thereby allowing the uptake of 7-AAD into the cell, which is associated with late apoptosis or necrosis. […] Using Annexin V and 7-AAD staining can therefore, not distinguish between late apoptosis or necrosis, however can characterize early apoptosis. The degree of apoptosis was thus measured using the Annexin V-FITC apoptosis detection kit. […] Actinomycin D (0.025 μg/ml) was used as a positive control for apoptosis to occur. Other controls included a medium (untreated) and 0.25% DMSO vehicle control. […] An additional 400 μl binding buffer was added to each culture tube and the fluorescence was measured using an Accuri C6 flow cytometer (BD Biosciences, San Jose, CA, USA). Data from at least 10,000 cells were analyzed using the BD Accuri C6 software.

UCT-MEL-1 cells [7] = test: as above; format: cell-based, human; details: 0.025 μg/ml, 48 h
Text: as §3

[8] = test system: vascular endothelial growth factor (VEGF); test: Quantification of in vitro VEGF in HaCat cells (ELISA); format: cell-based; details: Homo sapiens, 6 μg/ml, 6 h, read-out: inhibition of VEGF production
Method: (§4) Exponentially growing UCT-MEL-1 and HaCat cells were seeded at a concentration of 1.0×10^5 cells/well in a 24-well plate with complete medium to allow for cell adherence. After 24 h, the medium was removed and replaced with fresh complete medium. Stock concentrations of the B. saligna extract and DT-BS-01 were prepared at 1 mg/ml. The cells were treated with final concentrations of the B. saligna at 30 and 60 μg/ml; and DT-BS-01 at 5 and 20 μg/ml. Controls included a 0.15% DMSO vehicle control, cells grown in medium only and cells exposed to the positive control, ursolic acid at final concentrations of 6 μg/ml. After 6 h of treatment, the plates were centrifuged at 980 rpm for 10 min and the supernatant collected for quantification of VEGF using an ELISA kit (ThermoFisher Scientific, Johannesburg, South Africa) (Thermo Fisher, 2017). The cells viability was further determined using XTT at a final concentration of 0.3 mg/ml. The quantification of VEGF was performed according to the manufacturer's protocol (Novex® Cat #KHG0111) using a VEGF standard curve.

in vitro = format: cell-based; details: human
Method: as §4
The levels of VEGF secreted by UCT-MEL-1 and HaCat cells were determined after 6 h incubation with B. saligna and DT-BS-01. […] The HaCat cell viability was determined after treatment with the various samples and controls in order to determine whether inhibition of VEGF could have been due to a decrease in cell viability. […]

SK-MEL-2 melanoma = details: SK-MEL-2 CAM model; Caunii et al., 2017; cited from earlier work

- NO IC50 ± SD ([1]; NO radical scavenging): 62.46 ± 0.46 µg/mL
Compound: O=C1O[C@H]([C@@H](O)CO)C(O)=C1O [ascorbic acid]
- NO radical scavenging activity ([1]; 500 μg/ml): 75.70±0.15%

Compound: Cc1c2oc3c(C)ccc(C(=O)N[C@@H]4C(=O)N[C@H](C(C)C)C(=O)N5CCC[C@H]5C(=O)N(C)CC(=O)N(C)[C@@H](C(C)C)C(=O)O[C@@H]4C)c3nc-2c(C(=O)N[C@@H]2C(=O)N[C@H](C(C)C)C(=O)N3CCC[C@H]3C(=O)N(C)CC(=O)N(C)[C@@H](C(C)C)C(=O)O[C@@H]2C)c(N)c1=O [Actinomycin D] (I: T[dV]P[Sar][NMeV] / II: T[dV]P[Sar][NMeV]; ester I:1-I:C, II:1-II:C; linker I:N-II:N via Actinocin(9to1))
- selectivity index (SI) [2]: 3.83
- IC50 on HaCat cells [3]: 0.0092 ± 6.88e-05 µg/mL (≈ 7.33 nM)
- cell morphology, HaCat (HaCat cells [4]): displayed characteristic signs of apoptosis
- cell morphology, UCT-MEL-1 (UCT-MEL-1 cells [5]): displayed characteristic signs of apoptosis
- cells in late apoptosis, HaCat (HaCat cells [6]): 90.6%
- cells in late apoptosis, UCT-MEL-1 (UCT-MEL-1 cells [7]): 99.2%

Compound: C[C@H]1[C@H](C)CC[C@]2(C(=O)O)CC[C@]3(C)C(=CC[C@@H]4[C@@]5(C)CC[C@H](O)C(C)(C)[C@@H]5CC[C@]43C)[C@H]12 [ursolic acid]
- inhibition at 6 µg/mL [8]: 16 ± 0.93%
- viability at 6 h, 6 μg/ml (in vitro): 96 ± 3.62%
- angiogenic potential / capillary density in CAM (SK-MEL-2 melanoma): did not inhibit the density of the capillaries

Compound: CC1(C)CC[C@]2(C(=O)O)CC[C@]3(C)C(=CC[C@@H]4[C@@]5(C)CC[C@H](O)C(C)(C)[C@@H]5CC[C@]43C)[C@@H]2C1 [oleanolic acid]
- angiogenic potential / capillary density in CAM (SK-MEL-2 melanoma): able to reduce the angiogenic potential
